# Target: T1, Interleukin-5 (Mus musculus) (UniProt P04401)
# T1 sequence (whole entry): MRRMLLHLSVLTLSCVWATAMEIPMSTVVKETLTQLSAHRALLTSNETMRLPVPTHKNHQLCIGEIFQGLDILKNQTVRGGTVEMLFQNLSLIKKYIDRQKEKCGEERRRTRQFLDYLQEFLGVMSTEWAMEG
# Experiment: Inhibition of IL-5 in mouse Y16 cells assessed as reduction in cell proliferation at 30 uM after 48 hrs by WST-1 assay relative to control
# Assay type: cell-based
row,Structure (SMILES),inhibition [%]
1,COc1ccc(COc2cccc3c2C(=O)/C(=C/c2ccc(O)cc2)C3)cc1,0
2,O=C1c2c(cccc2OCCc2ccccc2)CC1Cc1ccccc1O (stereo unspecified),47
3,COc1ccc(COc2cccc3c2C(=O)/C(=C/c2ccc(C)cc2)C3)cc1,17
4,O=C1c2c(cccc2OCc2ccccc2)CC1Cc1ccc(O)cc1 (stereo unspecified),70
5,COCOc1ccc(CC2Cc3cccc(OCC4CCCCC4)c3C2=O)cc1 (stereo unspecified),90
6,COc1ccc(COc2cccc3c2C(=O)/C(=C/c2ccccc2)C3)cc1,5
7,O=C1c2c(cccc2OCC2CCCCC2)CC1Cc1ccc(Cl)cc1 (stereo unspecified),70
8,O=C1c2c(cccc2OCCc2ccccc2)CC1Cc1ccc(O)cc1 (stereo unspecified),59
9,COc1ccc(/C=C2\Cc3cccc(O)c3C2=O)cc1,25
10,O=C1c2c(cccc2OCC2CCCCC2)CC1Cc1ccc(O)cc1 (stereo unspecified),100
11,COc1ccc(/C=C2\Cc3cccc(OCC4CCCCC4)c3C2=O)cc1,5.6
12,O=C1/C(=C/c2ccccc2)Cc2cccc(O)c21,40
13,COCOc1ccc(/C=C2\Cc3cccc(OCC4CCCCC4)c3C2=O)cc1,23.5
14,O=C1/C(=C/c2ccc(O)cc2)Cc2cccc(O)c21,35
15,Cc1ccc(CC2Cc3cccc(OCC4CCCCC4)c3C2=O)cc1 (stereo unspecified),68
16,O=C1c2c(cccc2OCCC2CCCCC2)CC1Cc1ccc(O)cc1 (stereo unspecified),78

# More lines, now with the values ahead:
row,inhibition [%],Structure (SMILES)
1,60.5,O=C1c2c(cccc2OCCc2ccccc2)CC1Cc1cccc(O)c1 (stereo unspecified)
2,44,COc1ccc(CC2Cc3cccc(OCC4CCCCC4)c3C2=O)cc1 (stereo unspecified)
3,96,O=c1c(Cc2ccc(O)cc2)coc2cccc(OCC3CCCCC3)c12
4,29,COc1ccc(COc2cccc3c2C(=O)/C(=C/c2ccc(Cl)cc2)C3)cc1
5,13,O=C1c2c(cccc2OCC2CCCCC2)CC1Cc1ccccc1O (stereo unspecified)
6,30,O=C1c2c(O)cccc2CC1Cc1ccc(O)cc1 (stereo unspecified)
7,6,COc1ccc(/C=C2\Cc3cccc(OCc4ccc(OC)cc4)c3C2=O)cc1
8,47,O=C1/C(=C/c2ccc(O)cc2)Cc2cccc(OCC3CCCCC3)c21
9,95,O=C1c2c(cccc2OCC2CCCCC2)CC1Cc1cccc(O)c1 (stereo unspecified)
10,32,O=C1/C(=C/c2ccc(O)cc2)Cc2cccc(OCc3ccc([N+](=O)[O-])cc3)c21

# Source: ChEMBL document CHEMBL4152231, “Identification of novel 2-benzyl-1-indanone analogs as interleukin-5 inhibitors” (Eur J Med Chem, 2018)
